Experimental data taken from the pKa sets of Baltruschat and Czodrowski (2020).

Details: basic group
Cc1cc([O-])nc([O-])[n+]1C gave a pKa of 10.1.
Cc1ccccc1NC(C)(C)C showed a pKa of 6.49.
In the case of NCC(O)C[NH3+], the pKa is reported as 8.19.
Compound N[C@@H](CCCCN1C(=O)C[C@H](N)C1=O)C(=O)[O-] has a pKa of 9.5.
Compound N#CCCNN has a pKa of 5.91.
Compound CN(C(=O)c1ccccc1)c1ccccn1 has a pKa of 1.44.
In the case of Cc1ncc[nH]1, the pKa is reported as 7.97.
Compound NC(=S)NCc1ccccc1 has a pKa of 0.86.
CCOC(=O)Cc1nc2ccccc2[nH]1 showed a pKa of 5.7.
Nc1ccc(S(=O)(=O)Nc2cnccn2)cc1 gave a pKa of 1.77.
In the case of CCN(CC)CCO, the pKa is reported as 9.84.
CNc1nnc(-c2ccccc2)s1 gave a pKa of 2.8.
Compound C1CCN(CC[NH+]2CCCCC2)CC1 has a pKa of 6.12.
In the case of CC1(C)S[C@H]2[C@@H](NC(=O)Cc3ccc(N)cc3)C(=O)N2[C@@H]1C(=O)[O-], the pKa is reported as 4.6.
CC1[C@H](N)[C@H]1N (some centres not stated) gave a pKa of 8.98.
Compound C/C(CN(C)C)=N\[O-] has a pKa of 10.9.
For c1ccc(-c2ccncc2)cc1, the pKa was 5.3.
COc1ccc(-c2cnc(-c3ccc(C)cc3)o2)cc1 showed a pKa of 1.26.
Work on Nc1cccc2ncncc12 yielded a pKa of 3.57.
Cc1ccccc1/C(=N\CCCN(C)C)c1ccccc1N gave a pKa of 9.
For C=C1[C@@H]2CC3C4N5C[C@]6(C)C[C@@H](OC(C)=O)[C@H](OC(C)=O)[C@]47C6[C@@H]5C[C@]3([C@H]1OC(C)=O)[C@@]7(O)C2, the pKa was 8.35.
In the case of Cn1ccnc1, the pKa is reported as 7.15.
With [NH3+]CCCCCc1ccncc1 the pKa was 5.99.
For CN(C)CCBr, the pKa was 7.55.
Work on Cc1ccc(NC(=O)CN2CCCCC2)c(C)c1 yielded a pKa of 7.8.
In the case of Cc1ccnnc1, the pKa is reported as 3.22.
For Cc1ccc([N+](=O)[O-])c2c(NCCC[NH+](C)C)ccnc12, the pKa was 6.84.
In the case of CCC(C)N(C)c1ccccc1 (configuration not stated), the pKa is reported as 6.03.
N=c1c2ccccc2[nH]c2ccccc12 gave a pKa of 9.99.
Work on Nc1nc(N)c2[nH]cnc2n1 yielded a pKa of 5.05.
In the case of CN1CCC2Cc3ccc(O)c(O)c3C3CCCC1C23 (configuration not stated), the pKa is reported as 7.58.
With Oc1ccc(O)c2ncccc12 the pKa was 4.5.
With Cn1cnc2c1C(=O)c1ncnc([O-])c1C2=O the pKa was 6.09.
With Cn1c(=O)[nH]c2nc[nH]c2c1=O the pKa was 1.19.
In the case of [NH3+]c1ccc(-c2ncc(-c3ccc(Br)cc3)o2)cc1, the pKa is reported as -0.05.
CCNCl gave a pKa of 0.93.
For CC(C)Nc1ccccc1, the pKa was 5.67.
Work on CN(C)c1ccc(/C=N/c2ncc3nc[nH]c3n2)cc1 yielded a pKa of 5.26.
Compound O=Cc1cc(-c2ccccc2)nnc1NCCN1CCOCC1 has a pKa of 6.89.
Nc1nc[nH+]c(O)c1N showed a pKa of 1.34.
Compound CC(CN1CCCCC1)C(C#N)(c1ccccc1)c1ccccc1 (configuration not stated) has a pKa of 7.54.
With c1c[nH]c(Cc2nc(Cc3c[nH]cn3)c[nH]2)n1 the pKa was 7.26.
In the case of CN(C)c1ccc(C(=O)O)cc1, the pKa is reported as 2.57.
With CCC(=O)C(c1ccccc1)(c1ccccc1)[C@@H](C)CN(C)C the pKa was 8.07.
Compound Nc1nncc2ccccc12 has a pKa of 6.6.
With Nc1nccc(-c2csc(N)[nH+]2)n1 the pKa was 2.6.
Nc1ccc(Cl)cc1N showed a pKa of 4.3.
In the case of Cc1cc(Br)ccc1N, the pKa is reported as 3.58.
Compound C[NH2+]CCCNc1c2ccccc2nc2cccc([N+](=O)[O-])c12 has a pKa of 6.2.
For CNc1ncnc2nc[nH]c12, the pKa was 4.31.
For NC(CO)CO, the pKa was 8.63.
With CNCC(=O)N(C)C the pKa was 8.86.
O=[N+]([O-])c1cccc2cn[nH]c12 gave a pKa of -0.83.
For CCN(CC)CCCNS(=O)(=O)c1ccc(OC)c(OC)c1OC, the pKa was 9.54.
O=C(NCCN1CCOCC1)c1ccc(Cl)cc1 gave a pKa of 6.31.
With C[NH+](C)CCC/N=C(\c1ccccc1)c1ccccc1O the pKa was 3.31.
Work on COc1ccc2c3c1O[C@H]1CCC[C@H]4[C@H](NCC[C@]314)[C@H]2O yielded a pKa of 8.72.
With CCCCCCN(CCO)CC(C)O (configuration not stated) the pKa was 9.
CON showed a pKa of 4.62.
With Cc1cc([O-])nc(-n2nc(C)cc2O)n1 the pKa was 10.
O=C(CCN1CCOCC1)c1cccc([N+](=O)[O-])c1 gave a pKa of 6.5.
For O=C1[C@H]2C[C@H](CN3CCCC=C23)[C@@H]2CCCCN12, the pKa was 9.7.
COC(=O)c1cccc(N)c1 gave a pKa of 3.55.
CN(C)CCN(C)C showed a pKa of 9.15.
In the case of CC(C)(N)C(C)(C)[NH3+], the pKa is reported as 6.56.
Compound Cc1cccc(C)c1NN=C(C#N)C#N has a pKa of -0.82.
For COc1c2ccccc2nc2ccccc12, the pKa was 7.
In the case of NCCC(=O)c1ccccc1, the pKa is reported as 8.3.
In the case of CN(C)Cc1cccc(NC(=O)/C=N/[O-])c1, the pKa is reported as 9.12.
Work on CSc1ccc(N)cc1Cl yielded a pKa of 3.38.
In the case of COC(=O)c1cc(Br)c(=O)n(N)c1, the pKa is reported as 2.4.
Cc1cccc(N(C)C)c1 gave a pKa of 5.32.
With Nc1ccc[nH+]c1 the pKa was -1.37.
C#CCCCCCCN gave a pKa of 10.7.
For CCN(CC)c1ccccc1C, the pKa was 7.18.
Work on CCCCN(CC[S-])CCCC yielded a pKa of 11.6.
Work on Cc1c(Cn2ccnc2)oc2ccc(C(=O)[O-])cc12 yielded a pKa of 6.08.
In the case of CC(C#N)CN (configuration not stated), the pKa is reported as 7.75.
CCCCCN(CCO)CC(C)O (configuration not stated) showed a pKa of 8.9.
With CCC(=O)C1(c2cccc(O)c2)CCN(C)CC1 the pKa was 8.67.
For Cc1cnc(C)c(O)c1C=O, the pKa was 4.1.
c1ccc2c(c1)CNCCCNCc1ccccc1OCCO2 showed a pKa of 9.82.
Compound CN(C)Cc1ccccc1O has a pKa of 8.6.
Work on Cc1ccc(NCCS)cc1 yielded a pKa of 5.08.
For COc1ccc(N)cc1C(=O)N[C@@H]1C[C@H]2CC[C@@H](C1)N2Cc1ccccc1, the pKa was 8.86.
CCCCN(CC1CO1)CC1CO1 (configuration not stated) showed a pKa of 6.91.
Work on O=C(O)c1ccc(/N=C/c2ccccc2)cc1 yielded a pKa of 1.97.
